Here are results for 89 compounds from a melting point compilation (Tetko et al.; mined from patent text by program, amines drawn as free bases though some values may be those of a salt).

A value given as a limit tells only on which side of the number the result lay.

The term melting point denotes the temperature, or range, at which the solid turns liquid. The compound `CN(C)C1CC2c3ccccc3Cc3ccccc3N2C1` (centres undefined) returned a melting point of 124 to 128 °C.
For `Cn1c(COc2ccc(CC3SC(=O)NC3=O)cc2)nc2ccc(Oc3ccc4cccc(NC(=O)Nc5ccc(F)cc5F)c4c3)cc21` (centres undefined) the value was 222 to 224 °C; for `O=C(NCC1(c2ccccc2)CCCCC1)Nc1ccc(I)cc1`, 184 to 190 °C.
Regarding `Nc1nc2c(s1)CCN(CC=Cc1cccc(OCc3ccccn3)c1)CC2`, the melting point fell in the range of 35 to 40 °C.
The result for `CCC(CC)c1nn(-c2ccc(C(F)(F)F)nn2)cc1CCCO` reads 86 to 87 °C; that for `NS(=O)(=O)c1ccc(-c2nc(-c3ncn4c(C(F)(F)F)cc(-c5ccc(C(F)(F)F)cc5)nc34)no2)cc1`, 303 °C; that for `O=C(O)CCc1cc(C(=O)c2cccc(C(=O)O)c2)ccc1O`, 197 to 200 °C.
In the case of `CC(C)(C)OC(=O)Nc1cc(N2CCC(OCCO)CC2)c(I)cc1[N+](=O)[O-]`, the melting point was in the range of 64 to 65 °C.
The compound `Cc1ccc(S(=O)(=O)Nc2ccc3cccc(N4CCN(C)CC4)c3c2)cc1` gave a melting point of 180 °C.
For `COc1ccc(-c2csc(Nc3ccccc3)n2)cc1OC` the value was 170 to 174 °C.
Consider `CC(C#N)CCCC(N(C)C)C1(c2ccc(Cl)cc2)CCC1` (centres undefined), for which the melting point lay in the range of 54 to 56 °C.
Compound `CCc1cc(OCc2ccccc2)ccc1C(=O)O` registered a melting point of 132 to 133 °C.
`CN1CCN(c2c(F)cc3c(=O)c(C(=O)O)cn(C4CSC4)c3c2F)CC1` had a melting point of 204 to 206 °C.
For the compound `CN(Cc1cnn(C)c1)c1ccc(Br)cc1C=O`, the melting point is 80 to 81 °C.
In turn, `COc1ccc(C=Cc2nnc(C(Br)(Br)Br)o2)cc1` had a melting point of 160 to 161 °C.
For `CC(=O)c1cn(S(=O)(=O)c2ccccc2)c2nccc(OC3CCCCC3)c12` the value was 107 to 109 °C; for `Nc1nc(Oc2ccccc2)c2ncn(CCC(CO)CO)c2n1`, 173 to 175 °C; for `CCCCCCCCCCCCCCCCOC(=O)c1cnccn1`, 53 to 54 °C.
The compound `Nc1cccc(CNC(=O)c2[nH]c3ccc(Cl)cc3c2S(=O)(=O)c2ccccc2)c1` returned a melting point of 247 to 249 °C.
For `COc1cc(C(C)C)c(NC(=O)CN2CCN(CCCSc3nc4ccccc4o3)CC2)c(C(C)C)c1` the value was 129 to 130 °C; for `CN1c2ccc(-c3ccc4ccccc4c3)cc2Sc2cc(-c3ccc4ccccc4c3)ccc21`, 276 to 281 °C.
`CCc1cn(N=Cc2ccccc2)c(N)n1` gave a melting point of 164 to 167 °C.
For `O=C(O)C(=O)Nc1ccccc1C(=O)NC1CCN(C2CCCCC2)C1` (centres undefined) the value was 268 to 270 °C; for `CCCCc1ncc(/C=C(\Cc2cccs2)C(=O)O)n1Cc1ccc(OCC(=O)O)cc1`, 192 to 194 °C.
For `O=C(Nc1ccc(F)cc1F)NN1CC=CCC1` the value was 136 to 137 °C; for `COc1cccc(C=O)c1`, 83 to 84 °C.
The result for `Cc1nn(CC(F)(F)COC(=O)CN(C)C)c(-c2ccc(F)cc2)c1-c1ccc2c(c1)NC(=O)CO2` reads 153 to 155 °C.
For the compound `COc1cccc(C(N)=O)c1SSc1c(OC)cccc1C(N)=O`, the melting point fell in the range of 188 to 189 °C.
Compound `CCCc1c2c(c([N+](=O)[O-])c3c(=O)cc(C(=O)OCC)oc13)CCCC2` displayed a melting point of 140 to 142 °C.
For the compound `COc1cc(N=C(N)c2cccs2)ccc1N1CCN(C(=O)NCCCCC2CCSS2)CC1` (centres undefined), the melting point turned out to be 186 °C.
`Nc1ccc(C(=O)N2CCN(NC(=O)c3ccc(F)cc3)CC2)cc1`: the melting point stood at 209 °C.
With `CC(C)(C)c1nc(S(C)(=O)=O)n(-c2c(Cl)cc(Cl)cc2Cl)n1`, the melting point was 179 to 180 °C.
As for `NC(c1ccc2c(c1)OCO2)P(O)O` (centres undefined), the melting point fell in the range of 235 to 236 °C.
In turn, `CCCCc1nn(-c2cc([N+](=O)[O-])ccc2Cl)c(=O)n1Cc1ccc(-c2ccccc2S(=O)(=O)NC(C)(C)C)cc1` returned a melting point greater than 75 °C.
The result for `CCC(CC)C(NS(=O)(=O)c1ccc(Cl)s1)C(C)O` (centres undefined) reads 95 to 98 °C; that for `O=C1c2cccc3cc4ccccc4c(c23)C(=O)N1CCCNCCCN1C(=O)c2cccc3cc4ccccc4c(c23)C1=O`, 184 °C.
The result for `OC1(c2ccncc2)Cc2ccccc2C2=NCCN21` (centres undefined) reads 162 to 164 °C; that for `Cn1nc2c([N+](=O)[O-])cc3nc(O)c(O)nc3c2n1`, greater than 300 °C; that for `OCCC1(c2ccccc2)CCNC1` (centres undefined), 106 to 110 °C.
For `Cc1nc(C(F)(F)F)ccc1C(=O)C1=C(Cl)C2CCC(C2)C1=O` (centres undefined), the melting point was 137 to 138 °C.
For `Nc1ncc(-c2ccccc2F)nc1C(=O)Nc1cccnc1` the value was 221 to 225 °C; for `CN(C)CC(=O)Nc1cccc(NC(=O)Nc2ccc(N(CCCl)CCCl)cc2)c1`, 62 to 64 °C; for `CCNC(=O)c1ccccc1N(C)C(C)(C)C`, 45 to 48 °C.
The result for `CCC(OCC(F)(F)F)c1ccc(Cl)c2nc3n(c12)CCCN3c1ccc(OC)nc1C` (centres undefined) reads 124 to 126 °C; that for `COc1ccc(COC(=O)NC(C(=O)O)c2cccs2)cc1` (centres undefined), 153 to 156 °C; that for `CCOC(=O)c1cn2c(-c3ccccc3)cccc2n1`, 123 to 124 °C.
Compound `CC(C#Cc1cc2ccccc2s1)N(O)C(N)=O` (centres undefined) came in with a melting point of 168 to 169 °C.
`CCOC(=O)c1cc2c(s1)-n1c(C)nnc1CN=C2c1ccccc1Cl` displayed a melting point of 148 to 150 °C.
`Cn1cc2c(=O)[nH]c(=S)[nH]c2n1` gave a melting point of 200 °C.
In turn, `O=c1[nH]c(=O)n(CCO)c2ccccc12` displayed a melting point of 274 °C.
On to `CCOC(=O)c1cn2c3c(c(F)c(F)cc3c1=O)OCC21CCC1`, for which the melting point fell in the range of 255 to 256 °C.
`Cc1c(N2C(=O)C[C@@](O)(C3CC3)[C@@H]2C)ccc(C#N)c1Cl` yielded a melting point of 231 to 236 °C.
`C=C1CC2C(=O)C(c3c(CC)cc(C)cc3CC)=C(OCc3ccccc3)C2C1` (centres undefined) gave a melting point of 87 to 88 °C.
For `CCn1ncc(CC(=O)O)c1OCCCc1cn(-c2ccc(C(F)(F)F)cn2)nc1C(C)C`, the melting point fell in the range of 120 to 121 °C.
The compound `COc1cc(C)c(S(C)(=O)=O)cc1C(=O)O` registered a melting point of 228 °C.
The result for `CCOC(=O)c1cnoc1-c1ccc(F)c(Br)c1` reads 111 to 112 °C; that for `CC(=O)C1=C(O)C(=C(C)Nc2cccc(NS(=O)(=O)c3ccccc3)c2)C(=O)OC1=O`, 209 °C.
For `O=C(Nc1nc(-c2ccco2)c(-c2ccncc2)s1)c1ccn(Cc2ccccc2)c(=O)c1` the value was 244 to 248 °C; for `Cc1ccc(N(C)S(=O)(=O)c2cccs2)c2[nH]c(-c3ncc(CN4CCC(O)C4)s3)cc12` (centres undefined), 190 to 191 °C; for `ClC(Cl)(Cl)C1OCc2ccccc2O1` (centres undefined), 167 to 169 °C.
The result for `OCC#Cc1ccc(F)cc1` reads 32 to 33 °C.
For the compound `CC(C)Cc1ccc2scc(C(C)N(O)C(N)=O)c2c1` (centres undefined), the melting point lay in the range of 151 to 153 °C.
As to `CCCOc1cc2[nH]c(=O)[nH]c(=O)c2cc1OC`, the melting point lay in the range of 259 to 261 °C.
The result for `CCCNC(=O)NS(=O)(=O)c1ccccc1-c1ccc(Cn2c(CCC)nc(C)c2C(=S)OCC)cc1` reads 160 to 165 °C.
`O=C(NC1Cc2ccccc2C1)C(F)(F)F`: the melting point worked out at 160 °C.
Compound `NC(=O)CCCN1C(=O)c2ccccc2C1=O` displayed a melting point of 160 to 162 °C.
For the compound `CCCCCCCCCCCCCCCCOC(=O)Nc1ccc(NC(=O)NS(=O)(=O)c2ccc3ccccc3c2)cc1`, the melting point came out at 183 °C.
Consider `COC(=O)N1CC(Cc2ccc(OC)c(OC3CCCC3)c2)N(C(=O)OC)C1=O` (centres undefined), for which the melting point was 138 to 140 °C.
Compound `CCOP(C)(=O)COS(=O)(=O)c1ccccc1C(F)(F)F` (centres undefined) registered a melting point of 91 to 92.5 °C.
For `O=C1CN(CCC(O)C2CCCCC2)C(=O)N1` (centres undefined) the value was 97 to 99 °C.
The result for `O=C(Nc1ccc2[nH]c(=S)oc2c1)C(=O)N1CCC(Cc2ccccc2)CC1` reads 203 °C; that for `COC(=O)/C=C/c1ccc2c(c1)nc(N)c1ncn(CC(C)(C)O)c12`, greater than 250 °C.
`CC(=O)NCc1ccc(CN2CCN(c3ccc([N+](=O)[O-])cc3)CC2)cc1` came in with a melting point of 152 to 154 °C.
For `Nc1nc(Cl)c(NC=O)c(N[C@H]2C=C[C@@H](CO)C2)n1` the value was 174 to 176 °C; for `Cc1ccc2c(c1)C(=O)CCC21CCC(=O)N(C)C1=O` (centres undefined), 146 to 148 °C.
`C=C1[C@H](O)C[C@H](O[Si](C)(C)C(C)(C)C)[C@H]1CO[Si](C)(C)C(C)(C)C` showed a melting point of 64 to 66 °C.
For `CCCCCCCCCCCCSc1nnn(C(C(N)=O)(c2ccccc2)c2c(C(C)C)cccc2C(C)C)n1` (centres undefined) the value was 102 to 105 °C; for `CC(C)(NC1=NS(=O)(=O)c2sc(Cl)cc2N1)c1ccccc1`, 360 °C; for `C#CCOc1ccc(COC(C)=O)cc1OC`, 69 to 71 °C.
The compound `CCC1Cc2c(C)c(OCC(=O)O)c(C)c(C)c2C1=O` (centres undefined) had a melting point of 136 to 137 °C.
`N#Cc1cc(F)c(-n2nc3ccc(Cl)cn3c2=O)cc1O` displayed a melting point greater than 260 °C.
In turn, `CCC(COC)n1cc(Cl)nc(N2CCc3cc(OC)c(F)c(Cl)c32)c1=O` (centres undefined) showed a melting point of 140 to 142 °C.
The result for `CCOC(=O)C1C(=O)C(C(=O)c2ccc(Cl)cc2[N+](=O)[O-])C(=O)CC1CC(C)SCC` (centres undefined) reads 102 to 104 °C; that for `CC(C)(C)NC(=O)c1ccc(I)cc1`, 149 to 150 °C.
For the compound `COc1ccc(C(=O)Nc2ccc3ccc(C=CN(C)C)nc3n2)cc1`, the melting point was 240 °C.
The result for `Cc1cccc2c1nc(COc1ccc(Cl)cc1)n2CCC(C)C(=O)Cl` (centres undefined) reads 140 to 142 °C; that for `Nc1cc(F)c2[nH]nc(NC(=O)c3ccccc3)c2c1`, 208 °C.
Compound `OC1CCCc2nc3ccccc3c(NCCCC(c3ccccc3)c3ccccc3)c21` (centres undefined) showed a melting point of 147 to 148 °C.
The result for `COC(=O)c1ccc(Cn2c(=O)c(C)c3sc(C(=O)NCc4ccc(F)cc4)cn3c2=O)cc1` reads greater than 215 °C.
